Patent US20240158446A1, “CYCLIC COMPOUND HAVING SELECTIVE INHIBITORY ACTION ON KRAS OVER HRAS AND NRAS” (CHUGAI SEIYAKU KABUSHIKI KAISHA, priority 2021, published 2024)
Like-named read-outs stand apart in the source and are kept apart here. *1 amine or outer side, *2 acyl side, *3 side chain or, on linkers, in order; H or OH if unused. Where a SMILES comes first, the peptide text is derived from it. Bridges are numbered along the chain shown (N, C = ends). [ ]: non-standard residue; d: D form. The star is where a group is joined. hPhe(3,5-F2-4-CF3) = N[C@@H](CCc1cc(F)c(C(F)(F)F)c(F)c1)C(=O)O; NPrPhe(4-CF3) = CCCN[C@@H](Cc1ccc(C(F)(F)F)cc1)C(=O)O; NMeGly(cPent) = CN[C@H](C(=O)O)C1CCCC1; X11 = CCC[C@](C)(N[*:1])C(=O)[*:2]; NMeD = CN[C@@H](CC(=O)O)C(=O)O; NMeL = CN[C@@H](CC(C)C)C(=O)O; Morpholide = C1CN(*)CCO1; Aze = O=C(O)[C@@H]1CCN1; Sar = CNCC(=O)O

Columns and labels:
[1] = molecular target: GDP-bound KRAS wild-type protein (Homo sapiens, UniProt P01116); test: Binding to KRAS by surface plasmon resonance (SPR), Single Cycle Kinetics; conditions: GDP-bound KRAS wild-type protein, read-out: KRAS KD
[2] = molecular target: GDP-bound NRAS wild-type protein (Homo sapiens, UniProt P01111); test: Binding to NRAS by surface plasmon resonance (SPR), Single Cycle Kinetics; conditions: for NRAS/KRAS (ratio of KD value for NRAS to KD value for KRAS) / NRAS/KRAS (ratio of KD value with respect to NRAS to KD value with respect to KRAS): SPR, GDP-bound NRAS wild-type protein vs GDP-bound KRAS wild-type protein; for NRAS/KRAS (ratio of KD value with respect to GDP-bound NRAS wild-type protein to KD value with respect to KRAS): SPR KD ratio NRAS/KRAS, class symbols
[3] = molecular target: GDP-bound HRAS wild-type protein (Homo sapiens, UniProt P01112); test: Binding to HRAS by surface plasmon resonance (SPR), Single Cycle Kinetics; conditions: for HRAS/KRAS (ratio of KD value for HRAS to KD value for KRAS) / HRAS/KRAS (ratio of KD value with respect to HRAS to KD value with respect to KRAS): SPR, GDP-bound HRAS wild-type protein vs GDP-bound KRAS wild-type protein; for HRAS/KRAS (ratio of KD value with respect to GDP-bound HRAS wild-type protein to KD value with respect to KRAS): SPR KD ratio HRAS/KRAS, class symbols
[4] = SPR Single Cycle Kinetics, 1:1 binding model

GDP-bound HRAS wild-type protein, sequence (P01112 whole entry): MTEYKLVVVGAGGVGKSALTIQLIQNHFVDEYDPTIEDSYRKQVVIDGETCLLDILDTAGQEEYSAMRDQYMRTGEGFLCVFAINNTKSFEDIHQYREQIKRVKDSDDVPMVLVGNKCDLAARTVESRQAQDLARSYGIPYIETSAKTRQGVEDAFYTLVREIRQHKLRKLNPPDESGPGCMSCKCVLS
GDP-bound NRAS wild-type protein, sequence (P01111 whole entry): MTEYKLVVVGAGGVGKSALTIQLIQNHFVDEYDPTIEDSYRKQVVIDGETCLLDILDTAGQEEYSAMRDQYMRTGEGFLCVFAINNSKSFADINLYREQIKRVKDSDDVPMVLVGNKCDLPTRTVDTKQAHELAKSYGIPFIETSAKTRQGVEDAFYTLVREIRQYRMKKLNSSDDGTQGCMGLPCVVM
GDP-bound KRAS wild-type protein, sequence (P01116 whole entry): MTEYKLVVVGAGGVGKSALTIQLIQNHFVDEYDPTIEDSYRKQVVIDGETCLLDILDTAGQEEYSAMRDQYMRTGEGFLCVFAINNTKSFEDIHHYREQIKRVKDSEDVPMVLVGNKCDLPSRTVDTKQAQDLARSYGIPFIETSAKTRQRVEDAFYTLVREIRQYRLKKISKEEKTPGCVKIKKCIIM

## CCO[C@@H]1C[C@H]2C(=O)NC3(CCC3)C(=O)N(C)[C@@H](C3CCCC3)C(=O)N(C)[C@H](C(=O)N(C)C)CC(=O)N(C)[C@@H](CC(C)C)C(=O)N[C@@H]([C@@H](C)CC)C(=O)N(C)CC(=O)N(C)[C@H]3C/C=C\CCN(C3=O)[C@@H](Cc3ccc(C(F)(F)F)cc3)C(=O)N(C)CC(=O)N[C@@H](CCc3cc(F)c(C(F)(F)F)c(F)c3)C(=O)N2C1 [PP1107, (2S,8S,12R,14S,20S,23S,27S,30S,36S,38Z)-20-cyclopentyl-8-[2-[3,5-difluoro-4-(trifluoromethyl)phenyl]ethyl]-12-ethoxy-27-isobutyl-N,N,4,19,22,26,32,35-octamethyl-30-[(1S)-1-methylpropyl]-3,6,9,15,18,21,25,28,31,34,42-undecaoxo-2-[[4-(trifluoromethyl)phenyl]methyl]spiro[1,4,7,10,16,19,22,26,29,32,35-undecazatricyclo[34.5.1.0^10,14]dotetracont-38-ene-17,1′-cyclobutane]-23-carboxamide]
[1]; SPR, Single Cycle Kinetics
  Kd: 0.038 nM
[2]
  NRAS/KRAS (ratio of KD value for NRAS to KD value for KRAS): A (a compound having 10 or more and less than 20 is denoted as A)
[3]
  HRAS/KRAS (ratio of KD value for HRAS to KD value for KRAS): A (a compound having 10 or more and less than 20 is denoted as A)

## CCCN1C(=O)[C@@H]2CCN2C(=O)CN(C)C(=O)[C@H]([C@@H](C)CC)NC(=O)[C@H](CC(C)C)N(C)C(=O)C[C@@H](C(=O)N2CCOCC2)N(C)C(=O)[C@H](C2CCCC2)N(C)C(=O)[C@](C)(CCC)NC(=O)[C@@H]2CCCN2C(=O)[C@H](CCc2cc(F)c(C(F)(F)F)c(F)c2)NC(=O)CN(C)C(=O)[C@@H]1Cc1ccc(C(F)(F)F)cc1 [PP0794] ([NMeL]I[Sar][Aze][NPrPhe(4-CF3)][Sar][hPhe(3,5-F2-4-CF3)]P[X11][NMeGly(cPent)][NMeD]-Morpholide; lactam N-11)
[1]; [4]
  Kd: 1.5 nM
[2]
  NRAS/KRAS (ratio of KD value with respect to NRAS to KD value with respect to KRAS): C (A compound having a KD ratio of 0.1 or more and less than 3 is denoted as C)
[3]
  HRAS/KRAS (ratio of KD value with respect to HRAS to KD value with respect to KRAS): B (a compound having 3 or more and less than 10 is denoted as B)

## CC[C@H](C)[C@@H]1NC(=O)[C@H](CC(C)C)N(C)C(=O)C[C@@H](C(=O)N2CCOCC2)N(C)C(=O)[C@H](C2CCCC2)N(C)C(=O)C2(CCCC2)NC(=O)[C@H](C)N(CC)C(=O)[C@H](CCc2cc(F)c(C(F)(F)F)c(F)c2)NC(=O)CN(C)C(=O)[C@H](Cc2ccc(C(F)(F)F)cc2)N2CCCC[C@@H](C2=O)N(C)C(=O)CN(C)C1=O [PP0589]
[1]; [4]
  Kd: 0.36 nM
[2]
  NRAS/KRAS (ratio of KD value with respect to NRAS to KD value with respect to KRAS): B (a compound having 3 or more and less than 10 is denoted as B)
[3]
  HRAS/KRAS (ratio of KD value with respect to HRAS to KD value with respect to KRAS): B (a compound having 3 or more and less than 10 is denoted as B)

## CCC[C@H]1C(=O)N[C@@H]([C@@H](C)CC)C(=O)N(C)CC(=O)N(C)[C@H]2C/C=C\CCN(C2=O)[C@@H](Cc2ccc(C)cc2)C(=O)N(C)CC(=O)N[C@@H](CCc2cc(Cl)c3sccc3c2)C(=O)N2C[C@H](OCC)C[C@H]2C(=O)NC2(CC(C)(C)C2)C(=O)N(C)[C@@H](C(CC)CC)C(=O)N(C)[C@H](C(=O)N(C)C)CC(=O)N1C [PP2890]
[1]; [4]
  Kd: 0.42 nM
[2]
  NRAS/KRAS (ratio of KD value with respect to GDP-bound NRAS wild-type protein to KD value with respect to KRAS): AA (a compound having 20 or more is denoted as AA)
[3]
  HRAS/KRAS (ratio of KD value with respect to GDP-bound HRAS wild-type protein to KD value with respect to KRAS): A (a compound having 10 or more and less than 20 is denoted as A)

## CCO[C@@H]1C[C@H]2C(=O)NC3(CCC3)C(=O)N(C)[C@@H](C3CCCC3)C(=O)N(C)[C@H](C(=O)N(C)C)CC(=O)N(C)[C@@H](CC)C(=O)N[C@@H]([C@@H](C)CC)C(=O)N(C)CC(=O)N(C)[C@H]3C[C@@H](C)CCN(C3=O)[C@@H](Cc3ccc(C(F)(F)F)cc3)C(=O)N(C)CC(=O)N[C@@H](CCc3cc(F)c(C(F)(F)F)c(F)c3)C(=O)N2C1 [PP1020]
[1]; SPR, Single Cycle Kinetics
  Kd: 0.022 nM
[2]
  NRAS/KRAS (ratio of KD value for NRAS to KD value for KRAS): C (A compound having a KD ratio of 0.1 or more and less than 3 is denoted as C)
[3]
  HRAS/KRAS (ratio of KD value for HRAS to KD value for KRAS): B (a compound having 3 or more and less than 10 is denoted as B)

## CCO[C@@H]1C[C@H]2C(=O)NC3(CCC3)C(=O)N(C)[C@@H](C3CCCC3)C(=O)N(C)[C@H](C(=O)N(C)CC)CC(=O)N(C)[C@@H](CC3CCC3)C(=O)N[C@@H]([C@@H](C)CC)C(=O)N(C)CC(=O)N(C)[C@H]3C/C=C\CCN(C3=O)[C@@H](Cc3ccc(C(F)(F)F)cc3)C(=O)N(C)CC(=O)N[C@@H](CCc3ccc(C(F)(F)F)c(Cl)c3)C(=O)N2C1 [PP2826]
[1]; [4]
  Kd: 0.14 nM
[2]
  NRAS/KRAS (ratio of KD value with respect to GDP-bound NRAS wild-type protein to KD value with respect to KRAS): A (a compound having 10 or more and less than 20 is denoted as A)
[3]
  HRAS/KRAS (ratio of KD value with respect to GDP-bound HRAS wild-type protein to KD value with respect to KRAS): A (a compound having 10 or more and less than 20 is denoted as A)

## CCC[C@H]1C(=O)N[C@@H]([C@@H](C)CC)C(=O)N(C2CC2)CC(=O)N(C)[C@H]2C/C=C\CCN(C2=O)[C@@H](Cc2ccc(C(F)(F)F)cc2)C(=O)N(C)CC(=O)N[C@@H](CCc2cc(F)c(C(F)(F)F)c(F)c2)C(=O)N2C[C@H](OCC)C[C@H]2C(=O)NC2(CC(C)(C)C2)C(=O)N(C)[C@@H](CC2CC2)C(=O)N(C)[C@H](C(=O)N(C)C)CC(=O)N1C [PP2813]
[1]; [4]
  Kd: 1.7 nM
[2]
  NRAS/KRAS (ratio of KD value with respect to GDP-bound NRAS wild-type protein to KD value with respect to KRAS): AA (a compound having 20 or more is denoted as AA)
[3]
  HRAS/KRAS (ratio of KD value with respect to GDP-bound HRAS wild-type protein to KD value with respect to KRAS): A (a compound having 10 or more and less than 20 is denoted as A)

## CC[C@H](C)[C@@H]1NC(=O)[C@H](CC2CC2)N(C)C(=O)C[C@@H](C(=O)N2CCCC2)N(C)C(=O)[C@H](C2CCCC2)N(C)C(=O)C2(CCC2)NC(=O)[C@@H]2C[C@H](C)CN2C(=O)[C@H](CCc2cc(F)c(C(F)(F)F)c(F)c2)NC(=O)CN(C)C(=O)[C@H](Cc2ccc(C(F)(F)F)cc2)N2CC/C=C\C[C@@H](C2=O)N(C)C(=O)CN(C)C1=O [PP1510, (2S,8S,12S,14S,20S,23S,27S,30S,36S,38Z)-20-cyclopentyl-27-(cyclopropylmethyl)-8-[2-[3,5-difluoro-4-(trifluoromethyl)phenyl]ethyl]-4,12,19,22,26,32,35-heptamethyl-30-[(1S)-1-methylpropyl]-23-(pyrrolidine-1-carbonyl)-2-[[4-(trifluoromethyl)phenyl]methyl]spiro[1,4,7,10,16,19,22,26,29,32,35-undecazatricyclo[34.5.1.0^10,14]dotetracont-38-ene-17,1′-cyclobutane]-3,6,9,15,18,21,25,28,31,34,42-undecone]
[1]; SPR, Single Cycle Kinetics, 1:1 binding model
  Kd: 0.11 nM
[2]; KD ratio class
  NRAS/KRAS (ratio of KD value for NRAS to KD value for KRAS): AA (a compound having 20 or more is denoted as AA)
[3]; KD ratio class
  HRAS/KRAS (ratio of KD value for HRAS to KD value for KRAS): A (a compound having 10 or more and less than 20 is denoted as A)

## CCC[C@H]1C(=O)N[C@@H]([C@@H](C)CC)C(=O)N2CCC[C@H]2C(=O)N(C)[C@H]2C/C=C\CCN(C2=O)[C@@H](CC2CCCCC2)C(=O)N(C)CC(=O)N[C@@H](CCc2ccc(C(F)(F)F)c(OC)c2)C(=O)N2C[C@H](OCC)C[C@H]2C(=O)N(C)C2(CCC2)C(=O)N(C)[C@@H](C2CCCC2)C(=O)N(C)[C@H](C(=O)N(C)C)CC(=O)N1C [PP2344]
[1]; SPR, Single Cycle Kinetics
  Kd: 0.95 nM
[2]
  NRAS/KRAS (ratio of KD value for NRAS to KD value for KRAS): A (a compound having 10 or more and less than 20 is denoted as A)
[3]
  HRAS/KRAS (ratio of KD value for HRAS to KD value for KRAS): A (a compound having 10 or more and less than 20 is denoted as A)

## CC[C@H](C)[C@@H]1NC(=O)[C@H](C(C)C)N(C)C(=O)C[C@@H](C(=O)N(C)CC)N(C)C(=O)[C@H](C2CCCC2)N(C)C(=O)C2(CCC2)NC(=O)[C@@H]2C[C@H](C)CN2C(=O)[C@H](CCc2ccc(C(F)(F)F)c(OC)c2)NC(=O)CN(C)C(=O)[C@H](Cc2ccc(C(F)(F)F)cc2)N2CC/C=C\C[C@@H](C2=O)N(C)C(=O)CN(C)C1=O [PP2065]
[1]; SPR, Single Cycle Kinetics
  Kd: 0.22 nM
[2]
  NRAS/KRAS (ratio of KD value for NRAS to KD value for KRAS): A (a compound having 10 or more and less than 20 is denoted as A)
[3]
  HRAS/KRAS (ratio of KD value for HRAS to KD value for KRAS): B (a compound having 3 or more and less than 10 is denoted as B)

## CCO[C@@H]1C[C@H]2C(=O)NC3(CCC3)C(=O)N(C)[C@@H](C3CCCC3)C(=O)N(C)[C@H](C(=O)N(C)C)CC(=O)N(C)[C@@H](C)C(=O)N[C@@H]([C@@H](C)CC)C(=O)N(C)CC(=O)N(C)[C@H]3CCCCN(C3=O)[C@@H](Cc3ccc(C(F)(F)F)cc3)C(=O)N(C)CC(=O)N[C@@H](CCc3cc(F)c(C(F)(F)F)c(F)c3)C(=O)N2C1 [PP0587]
[1]; [4]
  Kd: 0.014 nM
[2]
  NRAS/KRAS (ratio of KD value with respect to NRAS to KD value with respect to KRAS): C (A compound having a KD ratio of 0.1 or more and less than 3 is denoted as C)
[3]
  HRAS/KRAS (ratio of KD value with respect to HRAS to KD value with respect to KRAS): C (A compound having a KD ratio of 0.1 or more and less than 3 is denoted as C)
